According to ChEMBL document CHEMBL3785015, “Phenobarbital pharmacokinetics and bioavailability in adults” (J Clin Pharmacol, 1982):

Assays:
[1] = Terminal half life in healthy human subjects (6 subjects) at 2.6 mg/kg, iv by HPLC method; type: ADME, organism-based; conditions: in vivo, read-out: beta t1/2 (converted)
[2] = Terminal half life in healthy human subjects (6 subjects) at 2.9 mg/kg, po by HPLC method; type: ADME, organism-based; conditions: in vivo, read-out: beta t1/2 (converted)
[3] = Apparent volume of distribution in healthy human subjects (6 subjects) at 2.6 mg/kg, iv by HPLC method; type: ADME, organism-based; conditions: in vivo, read-out: Vd(app)
[4] = Renal clearance in healthy human subjects (6 subjects) at 2.6 mg/kg, iv by HPLC method; type: ADME, organism-based, Kidney; conditions: in vivo
[5] = Total body clearance in healthy human subjects (6 subjects) at 2.6 mg/kg, iv by HPLC method; type: ADME, organism-based; conditions: in vivo
[6] = Tmax in healthy human subjects (6 subjects) at 2.9 mg/kg, po by HPLC method; type: ADME, organism-based; conditions: in vivo
[7] = Cmax in healthy human subjects (6 subjects) at 2.9 mg/kg, po by HPLC method; type: ADME, organism-based; design: dose 2.9 mg/kg, route oral; conditions: in vivo
[8] = Oral bioavailability in healthy human subjects (6 subjects) at 2.9 mg/kg by HPLC method; type: ADME, organism-based; conditions: in vivo
[9] = Corrected oral bioavailability in healthy human subjects (6 subjects) at 2.9 mg/kg by HPLC method; type: ADME, organism-based; conditions: in vivo
[10] = Drug dissolution in water measured during 15 mins; type: physicochemical; conditions: buffer, 0.25 h
[11] = Drug dissolution in 0.1N HCl measured during 15 mins; type: physicochemical; conditions: buffer, 0.25 h
[12] = Oral bioavailability in human subjects receiving phenobarbital tablets after having received phenobarbital infusion for […] withdrawal; type: ADME, organism-based; conditions: in vivo
[13] = Drug dissolution in acid medium after 90 mins; type: physicochemical; conditions: 1.5 h
[14] = Drug dissolution in aqueous medium after 90 mins; type: physicochemical; conditions: buffer, 1.5 h
[15] = Tmax in human; type: ADME, organism-based; conditions: in vivo
[16] = Tmax in adult human; type: ADME, organism-based; conditions: in vivo
[17] = Elimination half life in healthy human subjects (6 subjects) at 2.6 mg/kg, iv measured during intravenous control dose (period-1) by HPLC method; type: ADME, organism-based; conditions: in vivo, read-out: beta t1/2 (converted)
[18] = Elimination half life in healthy human subjects (6 subjects) measured during alkaline diuresis dose (period-2) by HPLC method; type: ADME, organism-based; conditions: in vivo, read-out: beta t1/2 (converted)
[19] = Elimination half life in healthy human subjects (6 subjects) at 2.9 mg/kg, po measured during oral dose (period-3) by HPLC method; type: ADME, organism-based; conditions: in vivo, read-out: beta t1/2 (converted)
Homo sapiens [20] = assay: Distribution half life in healthy human subjects (6 subjects) at 2.6 mg/kg, iv by HPLC method; type: ADME, organism-based; conditions: in vivo
Homo sapiens [21] = assay: Disposition rate constant at distribution phase in healthy human subjects (6 subjects) at 2.6 mg/kg, iv by HPLC method; type: ADME, organism-based; conditions: in vivo
[22] = Disposition rate constant at terminal phase in healthy human subjects (6 subjects) at 2.6 mg/kg, iv by HPLC method; type: ADME, organism-based; conditions: in vivo
[23] = Disposition rate constant at terminal phase in healthy human subjects (6 subjects) at 2.9 mg/kg, po by HPLC method; type: ADME, organism-based; conditions: in vivo

Work on `CCC1(c2ccccc2)C(=O)NC(=O)NC1=O` [PHENOBARBITAL] yielded a half-life [1] of 139 h, a half-life [2] of 122 h and a Vd [3] of 0.6 L/kg. The CL renal [4] was 0.8 mL/h/kg, the clearance [5] was 3 mL/h/kg and the Tmax [6] was 2.3 h. The Cmax [7] was 5500 ng/mL, the bioavailability [8] was 83.4% and the bioavailability [9] was 94.9%. It also gave a Drug dissolution [10] of 80%, a Drug dissolution [11] of 81.5% and a bioavailability [12] of 100%. It also gave a Drug dissolution [13] of 61.3%, a Drug dissolution [14] of 86% and a Tmax [15] of no more than 18 h. It also gave a Tmax [16] of 50 h, a half-life [17] of 147 h and a half-life [18] of 128 h. The half-life [19] was 149 h, the alphat1/2 (Homo sapiens [20]) was 0.18 h and the K (Homo sapiens [21]) was 3.8 h⁻¹. For the same molecule, the k el [22] was 1.39e-06 s⁻¹ and the k el [23] was 1.58e-06 s⁻¹.
